What follows are molecules tested on test plant species (assay: Post-emergent herbicidal activity test (greenhouse, foliar spray, visual growth reduction)). Conditions: post-emergence, 336 h, ALOMY: blackgrass (Alopecurus myosuroides), 140 g ai/ha, 14 days after application, read-out: Visual Growth Reduction (%) 14 Days After Application, ALOMY.
Type: in vivo
Summary of the method: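 Greenhouse plants at first–second true leaf stage sprayed overhead at 187 L/ha with compound in acetone/water/isopropanol/DMSO/crop oil/X-77 carrier; controls received solvent blank. Injury rated visually after 14 d on a 0–100% scale versus untreated and control plants, converted to growth reduction.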

First: COC(=O)c1nc(-c2ccc(C(F)(F)F)cc2)c(F)cc1Cl [F93, Methyl 3-chloro-5-fluoro-6-(4-(trifluoromethyl)phenyl)picolinate]
Second: O=C(O)c1nc(-c2cc(Br)c(C(F)(F)F)cc2Cl)c(F)cc1Cl [F181, 6-(5-Bromo-2-chloro-4-(trifluoromethyl)phenyl)-3-chloro-5-fluoropicolinic acid]
The pest or weed control at 140 g/ha of the first is lower: 0 to 29% for the first, 30 to 44% for the second.

Same assay, conditions: post-emergence, 336 h, AMARE: redroot pigweed (Amaranthus retroflexus), 140 g ai/ha, 14 days after application, read-out: Visual Growth Reduction (%) 14 Days After Application, AMARE

Compared with `COC(=O)c1nc(-c2ccc(C(F)(F)F)cc2)c(F)cc1Cl` [F93, Methyl 3-chloro-5-fluoro-6-(4-(trifluoromethyl)phenyl)picolinate], `O=C(O)c1nc(-c2cc(Br)c(C(F)(F)F)cc2Cl)c(F)cc1Cl` [F181, 6-(5-Bromo-2-chloro-4-(trifluoromethyl)phenyl)-3-chloro-5-fluoropicolinic acid] is higher in pest or weed control at 140 g/ha: 0 to 29% for the first, 95 to 100% for the second.

Same assay, conditions: post-emergence, 336 h, AVEFA: wild oat (Avena fatua), 140 g ai/ha, 14 days after application, read-out: Visual Growth Reduction (%) 14 Days After Application, AVEFA

First: COC(=O)c1nc(-c2ccc(C(F)(F)F)cc2)c(F)cc1Cl [F93, Methyl 3-chloro-5-fluoro-6-(4-(trifluoromethyl)phenyl)picolinate]
Second: O=C(O)c1nc(-c2cc(Br)c(C(F)(F)F)cc2Cl)c(F)cc1Cl [F181, 6-(5-Bromo-2-chloro-4-(trifluoromethyl)phenyl)-3-chloro-5-fluoropicolinic acid]
The pest or weed control at 140 g/ha of the first is lower: 0 to 29% for the first, 30 to 44% for the second.

Same assay, conditions: post-emergence, 336 h, CHEAL: lambsquarters (Chenopodium album), 140 g ai/ha, 14 days after application, read-out: Visual Growth Reduction (%) 14 Days After Application, CHEAL

Compared with `COC(=O)c1nc(-c2ccc(C(F)(F)F)cc2)c(F)cc1Cl` [F93, Methyl 3-chloro-5-fluoro-6-(4-(trifluoromethyl)phenyl)picolinate], `O=C(O)c1nc(-c2cc(Br)c(C(F)(F)F)cc2Cl)c(F)cc1Cl` [F181, 6-(5-Bromo-2-chloro-4-(trifluoromethyl)phenyl)-3-chloro-5-fluoropicolinic acid] is higher in pest or weed control at 140 g/ha: 45 to 59% for the first, 95 to 100% for the second.

Same assay, conditions: post-emergence, 336 h, CIRAR: canada thistle (Cirsium arvense), 140 g ai/ha, 14 days after application, read-out: Visual Growth Reduction (%) 14 Days After Application, CIRAR

Compared with `COC(=O)c1nc(-c2ccc(C(F)(F)F)cc2)c(F)cc1Cl` [F93, Methyl 3-chloro-5-fluoro-6-(4-(trifluoromethyl)phenyl)picolinate], `O=C(O)c1nc(-c2cc(Br)c(C(F)(F)F)cc2Cl)c(F)cc1Cl` [F181, 6-(5-Bromo-2-chloro-4-(trifluoromethyl)phenyl)-3-chloro-5-fluoropicolinic acid] is higher in pest or weed control at 140 g/ha: 30 to 44% for the first, 75 to 84% for the second.

Same assay, conditions: post-emergence, 336 h, CYPES: yellow nutsedge (Cyperus esculentus), 140 g ai/ha, 14 days after application, read-out: Visual Growth Reduction (%) 14 Days After Application, CYPES

Compared with `COC(=O)c1nc(-c2ccc(C(F)(F)F)cc2)c(F)cc1Cl` [F93, Methyl 3-chloro-5-fluoro-6-(4-(trifluoromethyl)phenyl)picolinate], `O=C(O)c1nc(-c2cc(Br)c(C(F)(F)F)cc2Cl)c(F)cc1Cl` [F181, 6-(5-Bromo-2-chloro-4-(trifluoromethyl)phenyl)-3-chloro-5-fluoropicolinic acid] is higher in pest or weed control at 140 g/ha: 0 to 29% for the first, 45 to 59% for the second.

Same assay, conditions: post-emergence, 336 h, DIGSA: crabgrass (Digitaria sanguinalis), 140 g ai/ha, 14 days after application, read-out: Visual Growth Reduction (%) 14 Days After Application, DIGSA

First: COC(=O)c1nc(-c2ccc(C(F)(F)F)cc2)c(F)cc1Cl [F93, Methyl 3-chloro-5-fluoro-6-(4-(trifluoromethyl)phenyl)picolinate]
Second: O=C(O)c1nc(-c2cc(Br)c(C(F)(F)F)cc2Cl)c(F)cc1Cl [F181, 6-(5-Bromo-2-chloro-4-(trifluoromethyl)phenyl)-3-chloro-5-fluoropicolinic acid]
The pest or weed control at 140 g/ha of the first is lower: 60 to 74% for the first, 95 to 100% for the second.

Same assay, conditions: post-emergence, 336 h, ECHCG: barnyardgrass (Echinochloa crus-galli), 140 g ai/ha, 14 days after application, read-out: Visual Growth Reduction (%) 14 Days After Application, ECHCG

First: COC(=O)c1nc(-c2ccc(C(F)(F)F)cc2)c(F)cc1Cl [F93, Methyl 3-chloro-5-fluoro-6-(4-(trifluoromethyl)phenyl)picolinate]
Second: O=C(O)c1nc(-c2cc(Br)c(C(F)(F)F)cc2Cl)c(F)cc1Cl [F181, 6-(5-Bromo-2-chloro-4-(trifluoromethyl)phenyl)-3-chloro-5-fluoropicolinic acid]
The pest or weed control at 140 g/ha of the first is lower: 0 to 29% for the first, 60 to 74% for the second.

Same assay, conditions: post-emergence, 336 h, IPOHE: ivy-leaf morning glory (Ipomoea hederacea), 140 g ai/ha, 14 days after application, read-out: Visual Growth Reduction (%) 14 Days After Application, IPOHE

First: COC(=O)c1nc(-c2ccc(C(F)(F)F)cc2)c(F)cc1Cl [F93, Methyl 3-chloro-5-fluoro-6-(4-(trifluoromethyl)phenyl)picolinate]
Second: O=C(O)c1nc(-c2cc(Br)c(C(F)(F)F)cc2Cl)c(F)cc1Cl [F181, 6-(5-Bromo-2-chloro-4-(trifluoromethyl)phenyl)-3-chloro-5-fluoropicolinic acid]
The pest or weed control at 140 g/ha of the first is lower: 60 to 74% for the first, 95 to 100% for the second.

Same assay, conditions: post-emergence, 336 h, KCHSC: kochia (Bassia scoparia), 140 g ai/ha, 14 days after application, read-out: Visual Growth Reduction (%) 14 Days After Application, KCHSC

First: COC(=O)c1nc(-c2ccc(C(F)(F)F)cc2)c(F)cc1Cl [F93, Methyl 3-chloro-5-fluoro-6-(4-(trifluoromethyl)phenyl)picolinate]
Second: O=C(O)c1nc(-c2cc(Br)c(C(F)(F)F)cc2Cl)c(F)cc1Cl [F181, 6-(5-Bromo-2-chloro-4-(trifluoromethyl)phenyl)-3-chloro-5-fluoropicolinic acid]
The pest or weed control at 140 g/ha of the first is lower: 0 to 29% for the first, 60 to 74% for the second.

Same assay, conditions: post-emergence, 336 h, ORYSA: rice (Oryza sativa), 140 g ai/ha, 14 days after application, read-out: Visual Growth Reduction (%) 14 Days After Application, ORYSA

`COC(=O)c1nc(-c2ccc(C(F)(F)F)cc2)c(F)cc1Cl` [F93, Methyl 3-chloro-5-fluoro-6-(4-(trifluoromethyl)phenyl)picolinate] and `O=C(O)c1nc(-c2cc(Br)c(C(F)(F)F)cc2Cl)c(F)cc1Cl` [F181, 6-(5-Bromo-2-chloro-4-(trifluoromethyl)phenyl)-3-chloro-5-fluoropicolinic acid] fall in the same range of pest or weed control at 140 g/ha: 0 to 29% for the first, 0 to 29% for the second.

Same assay, conditions: post-emergence, 336 h, SETFA: giant foxtail (Setaria faberi), 140 g ai/ha, 14 days after application, read-out: Visual Growth Reduction (%) 14 Days After Application, SETFA

First: COC(=O)c1nc(-c2ccc(C(F)(F)F)cc2)c(F)cc1Cl [F93, Methyl 3-chloro-5-fluoro-6-(4-(trifluoromethyl)phenyl)picolinate]
Second: O=C(O)c1nc(-c2cc(Br)c(C(F)(F)F)cc2Cl)c(F)cc1Cl [F181, 6-(5-Bromo-2-chloro-4-(trifluoromethyl)phenyl)-3-chloro-5-fluoropicolinic acid]
The pest or weed control at 140 g/ha of the first is lower: 0 to 29% for the first, 30 to 44% for the second.

Same assay, conditions: post-emergence, 336 h, SORVU: grain sorghum (Sorghum vulgare), 140 g ai/ha, 14 days after application, read-out: Visual Growth Reduction (%) 14 Days After Application, SORVU

Compared with `COC(=O)c1nc(-c2ccc(C(F)(F)F)cc2)c(F)cc1Cl` [F93, Methyl 3-chloro-5-fluoro-6-(4-(trifluoromethyl)phenyl)picolinate], `O=C(O)c1nc(-c2cc(Br)c(C(F)(F)F)cc2Cl)c(F)cc1Cl` [F181, 6-(5-Bromo-2-chloro-4-(trifluoromethyl)phenyl)-3-chloro-5-fluoropicolinic acid] is higher in pest or weed control at 140 g/ha: 0 to 29% for the first, 95 to 100% for the second.

Same assay, conditions: post-emergence, 336 h, STEME: common chickweed (Stellaria media), 140 g ai/ha, 14 days after application, read-out: Visual Growth Reduction (%) 14 Days After Application, STEME

`COC(=O)c1nc(-c2ccc(C(F)(F)F)cc2)c(F)cc1Cl` [F93, Methyl 3-chloro-5-fluoro-6-(4-(trifluoromethyl)phenyl)picolinate] and `O=C(O)c1nc(-c2cc(Br)c(C(F)(F)F)cc2Cl)c(F)cc1Cl` [F181, 6-(5-Bromo-2-chloro-4-(trifluoromethyl)phenyl)-3-chloro-5-fluoropicolinic acid] fall in the same range of pest or weed control at 140 g/ha: 0 to 29% for the first, 0 to 29% for the second.

Same assay, conditions: post-emergence, 336 h, TRZAS: wheat, spring (Triticum aestivum), 140 g ai/ha, 14 days after application, read-out: Visual Growth Reduction (%) 14 Days After Application, TRZAS

Compared with `COC(=O)c1nc(-c2ccc(C(F)(F)F)cc2)c(F)cc1Cl` [F93, Methyl 3-chloro-5-fluoro-6-(4-(trifluoromethyl)phenyl)picolinate], `O=C(O)c1nc(-c2cc(Br)c(C(F)(F)F)cc2Cl)c(F)cc1Cl` [F181, 6-(5-Bromo-2-chloro-4-(trifluoromethyl)phenyl)-3-chloro-5-fluoropicolinic acid] is higher in pest or weed control at 140 g/ha: 0 to 29% for the first, 45 to 59% for the second.
